According to ChEMBL document CHEMBL6087460, “Generating a Peptide Library Using the Repeats of Amino Acid Scaffolds Created by Sliding the Framework of a 7-mer Human Chemerin Segment and Discovery of Potent Antibacterial and Antimycobacterial Peptides” (J Med Chem, 2025):
≈ marks a conversion by molar mass, not a printed value. Blank lines part the entries; values can stand above or below the molecule they belong to. Calls of active or inactive are those of the source. The rule behind the calls is not given here. Where a SMILES comes first, the peptide text is derived from it.

Legend:
[1] = Drug localization in cell membrane of Escherichia coli ATCC 25922 at 3 times MIC by confocal microscopy; type: ADME, cell membranes
Escherichia coli [2] = assay: Antibacterial activity against Escherichia coli ATCC 25922 incubated for 16 to 18 hrs by broth dilution assay; type: functional; conditions: time 16-18 hrs
Klebsiella pneumoniae = assay: Antibacterial activity against Klebsiella pneumoniae ATCC 27736 incubated for 16 to 18 hrs by broth dilution assay; type: functional; conditions: time 16-18 hrs
Pseudomonas aeruginosa = assay: Antibacterial activity against Pseudomonas aeruginosa ATCC BAA-427 incubated for 16 to 18 hrs by broth dilution assay; type: functional; conditions: time 16-18 hrs
Staphylococcus aureus [3] = assay: Antibacterial activity against Staphylococcus aureus ATCC 25923 incubated for 16 to 18 hrs by broth dilution assay; type: functional; conditions: time 16-18 hrs
Bacillus subtilis = assay: Antibacterial activity against Bacillus subtilis 6633 incubated for 16 to 18 hrs by broth dilution assay; type: functional; conditions: time 16-18 hrs
Staphylococcus aureus [4] = assay: Antibacterial activity against methicillin-resistant Staphylococcus aureus 33591 incubated for 16 to 18 hrs by broth dilution assay; type: functional; conditions: time 16-18 hrs
Staphylococcus aureus [5] = assay: Antibacterial activity against methicillin-resistant Staphylococcus aureus BAA-44 incubated for 16 to 18 hrs by broth dilution assay; type: functional; conditions: time 16-18 hrs
Escherichia coli [6] = assay: Induction of resistance development in Escherichia coli ATCC 25922 assessed as fold increase in MIC at sub-MIC measured after 30 passages relative to control; type: functional
Staphylococcus aureus [7] = assay: Induction of resistance development in Staphylococcus aureus ATCC 25923 assessed as fold increase in MIC at sub-MIC measured after 30 passages relative to control; type: functional
Staphylococcus aureus [8] = assay: Induction of resistance development in methicillin-resistant Staphylococcus aureus 33591 assessed as fold increase in MIC at sub-MIC measured after 30 passages relative to control; type: functional
Staphylococcus aureus [9] = assay: Induction of resistance development in methicillin-resistant Staphylococcus aureus BAA-44 assessed as fold increase in MIC at sub-MIC measured after 30 passages relative to control; type: functional
[10] = Retention time of compound by RP-HPLC method; type: physicochemical
[11] = Hemolytic activity in human RBC measured after 40 mins by absorbance based assay; type: toxicity, cell-based, Erythrocyte; conditions: human red blood cells
Escherichia coli [12] = assay: Bactericidal activity against Escherichia coli ATCC 25922 incubated for 16 to 18 hrs; type: functional; conditions: time 16-18 hrs
Escherichia coli [13] = assay: Antibacterial activity against Escherichia coli ATCC 25922 incubated for 16 to 18 hrs in presence of 10 percent human serum by broth dilution assay; type: functional; conditions: time 16-18 hrs
Staphylococcus aureus [14] = assay: Bactericidal activity against Staphylococcus aureus ATCC 25923 incubated for 16 to 18 hrs; type: functional; conditions: time 16-18 hrs
Staphylococcus aureus [15] = assay: Antibacterial activity against Staphylococcus aureus ATCC 25923 incubated for 16 to 18 hrs in presence of 10 percent human serum by broth dilution assay; type: functional; conditions: time 16-18 hrs
[16] = Cytotoxicity against mouse 3T3-L1 cells assessed as cell viability at 100 uM incubated for 24 hrs by MTT assay relative to control; type: toxicity, cell-based; conditions: 3T3-L1 cells, read-out: Activity
[17] = Cytotoxicity against rat L6 cells assessed as cell viability at 100 uM incubated for 24 hrs by MTT assay relative to control; type: toxicity, cell-based; conditions: L6 cells, read-out: Activity
Escherichia coli [18] = assay: Bactericidal activity against Escherichia coli ATCC 25922 at MIC incubated for 45 mins by time kill assay; type: functional, organism-based
Staphylococcus aureus [19] = assay: Bactericidal activity against Staphylococcus aureus ATCC 25923 at MIC incubated for 45 mins by time kill assay; type: functional, organism-based
Escherichia coli [20] = assay: Bactericidal activity against Escherichia coli ATCC 25922 at MIC incubated for 30 mins by time kill assay; type: functional, organism-based
Escherichia coli [21] = assay: Induction of membrane depolarization in Escherichia coli ATCC 25922 by diSC3-5 dye based analysis; type: functional, organism-based
Staphylococcus aureus [22] = assay: Induction of membrane depolarization in Staphylococcus aureus ATCC 25923 by diSC3-5 dye based analysis; type: functional, organism-based
Escherichia coli [23] = assay: Disruption of plasma membrane integrity in Escherichia coli ATCC 25922 by SYTOX-Green uptake assay; type: functional, organism-based
Staphylococcus aureus [24] = assay: Disruption of plasma membrane integrity in Staphylococcus aureus ATCC 25923 by SYTOX-Green uptake assay; type: functional, organism-based
Escherichia coli [25] = assay: Disruption of membrane integrity in Escherichia coli ATCC 25922 by PI staining based analysis; type: functional, organism-based
Staphylococcus aureus [26] = assay: Disruption of membrane integrity in Staphylococcus aureus ATCC 25923 by PI staining based analysis; type: functional, organism-based
[27] = Hemolytic activity in human RBC assessed as disruption of membrane integrity by Alexa Fluor-Annexin V staining based analysis; type: toxicity, cell-based; conditions: erythrocyte
[28] = Toxicity in BALB/c mouse assessed as animal survival at 15 mg/kg, iv administered thrice at 2 hrs interval measured after 7 days; type: organism-based; conditions: in vivo, 168 h, time 7 day
[29] = Toxicity in BALB/c mouse assessed as change in AST level at 15 mg/kg, iv administered thrice at 2 hrs interval measured after 7 days; type: organism-based; conditions: in vivo, 168 h, time 7 day
[30] = Toxicity in BALB/c mouse assessed as change in ALT level at 15 mg/kg, iv administered thrice at 2 hrs interval measured after 7 days; type: organism-based; conditions: in vivo, 168 h, time 7 day
[31] = Toxicity in BALB/c mouse infected with Escherichia coli ATCC 25922 assessed as animal survival at 5 mg/kg, iv administered thrice at 1,3 and 5 hrs post-infection measured after 7 days; type: organism-based; conditions: in vivo, 168 h, time 7 day
[32] = Toxicity in BALB/c mouse infected with Escherichia coli ATCC 25922 assessed as animal survival at 2.5 mg/kg, iv administered thrice at 1,3 and 5 hrs post-infection measured after 7 days; type: organism-based; conditions: in vivo, 168 h, time 7 day
Escherichia coli [33] = assay: Antibacterial activity against Escherichia coli ATCC 25922 infected in BALB/c mouse assessed as bacterial load in blood at 5 mg/kg, iv administered thrice at 1,3 and 5 hrs post-infection measured after 24 hrs post-last dose (Rvb ~ 4 x10^6 CFU/mL); type: functional; conditions: time 29 hrs
Escherichia coli [34] = assay: Antibacterial activity against Escherichia coli ATCC 25922 infected in BALB/c mouse assessed as bacterial count in liver at 5 mg/kg, iv administered thrice at 1,3 and 5 hrs post-infection measured after 24 hrs post-last dose (Rvb ~ 2.3 x10^7 CFU/mL); type: functional; conditions: time 29 hrs
Escherichia coli [35] = assay: Antibacterial activity against Escherichia coli ATCC 25922 infected in BALB/c mouse assessed as bacterial count in spleen at 5 mg/kg, iv administered thrice at 1,3 and 5 hrs post-infection measured after 24 hrs post-last dose (Rvb ~ 1.9 x10^7 CFU/mL); type: functional; conditions: time 29 hrs
Escherichia coli [36] = assay: Antibacterial activity against Escherichia coli ATCC 25922 infected in BALB/c mouse assessed as bacterial count in kidney at 5 mg/kg, iv administered thrice at 1,3 and 5 hrs post-infection measured after 24 hrs post-last dose (Rvb ~ 1.8 x10^7 CFU/mL); type: functional; conditions: time 29 hrs
Escherichia coli [37] = assay: Antibacterial activity against Escherichia coli ATCC 25922 infected in BALB/c mouse assessed as bacterial count in blood at 5 mg/kg, iv administered thrice at 1,3 and 5 hrs post-infection measured after 24 hrs post-last dose (Rvb ~ 9.6 x10^6 CFU/mL); type: functional; conditions: time 29 hrs
[38] = test system: Mycolicibacterium smegmatis; assay: Antitubercular activity against Mycobacterium smegmatis incubated for 24 hrs by rezasurin dye based assay; type: functional

Drug uptake [1]: Active
Molecule: CC(C)C[C@H](NC(=O)[C@H](CCCNC(=N)N)NC(=O)[C@@H](NC(=O)[C@H](CC(C)C)NC(=O)[C@H](CCCNC(=N)N)NC(=O)[C@@H](NC(=O)[C@H](CC(C)C)NC(=O)[C@H](CCCNC(=N)N)NC(=O)[C@@H](NC(=O)[C@H](CC(C)C)NC(=O)[C@H](CCCNC(=N)N)NC(=O)c1cc(C(=O)O)ccc1-c1c2ccc(=[N+](C)C)cc-2oc2cc(N(C)C)ccc12)C(C)C)C(C)C)C(C)C)C(=O)N[C@H](C(=O)O)C(C)C.[Cl-] (HELM PEPTIDE1{[CN(C)c1ccc2c(-c3ccc(C(=O)O)cc3C(=O)[*:2])c3ccc(=[N+](C)C)cc-3oc2c1].R.L.V.R.L.V.R.L.V.R.L.V}$$$$V2.0)

Molecule: O=C(O)c1cn(C2CC2)c2cc(N3CCNCC3)c(F)cc2c1=O [CIPROFLOXACIN]
MIC (Escherichia coli [2]): 0.1 µM (≈ 0.0331 µg/mL)
MIC (Klebsiella pneumoniae): 0.1 µM (≈ 0.0331 µg/mL)
MIC (Pseudomonas aeruginosa): 6.3 µM (≈ 2.09 µg/mL)
MIC (Staphylococcus aureus [3]): 6.3 µM (≈ 2.09 µg/mL)
MIC (Bacillus subtilis): 6.3 µM (≈ 2.09 µg/mL)
MIC (Staphylococcus aureus [4]): 6.3 µM (≈ 2.09 µg/mL)
MIC (Staphylococcus aureus [5]): 6.3 µM (≈ 2.09 µg/mL)
fold change (FC) (Escherichia coli [6]): 128
fold change (FC) (Staphylococcus aureus [7]): 128
fold change (FC) (Staphylococcus aureus [8]): 128
fold change (FC) (Staphylococcus aureus [9]): 128

Molecule: CN(C)[C@@H]1C(O)=C(C(N)=O)C(=O)[C@@]2(O)C(O)=C3C(=O)c4c(O)cccc4[C@@](C)(O)[C@H]3C[C@@H]12 [TETRACYCLINE]
MIC (Escherichia coli [2]): 3.1 µM (≈ 1.38 µg/mL)
MIC (Klebsiella pneumoniae): 3.1 µM (≈ 1.38 µg/mL)
MIC (Pseudomonas aeruginosa): 50 µM (≈ 22.2 µg/mL)
MIC (Staphylococcus aureus [3]): 3.1 µM (≈ 1.38 µg/mL)
MIC (Bacillus subtilis): 1.6 µM (≈ 0.711 µg/mL)
MIC (Staphylococcus aureus [4]): 100 µM (≈ 44.4 µg/mL)
MIC (Staphylococcus aureus [5]): 100 µM (≈ 44.4 µg/mL)
fold change (FC) (Escherichia coli [6]): 32
fold change (FC) (Staphylococcus aureus [7]): 64
fold change (FC) (Staphylococcus aureus [8]): <=64
fold change (FC) (Staphylococcus aureus [9]): 128

Molecule: H-KVLKVLKVLKVL-OH
Retention_time [10]: 19.44 min
MIC (Escherichia coli [2]): 1.1 µM
MIC (Klebsiella pneumoniae): 4.5 µM
MIC (Pseudomonas aeruginosa): 9 µM
MIC (Staphylococcus aureus [3]): 18.1 µM
MIC (Bacillus subtilis): 9 µM
MIC (Staphylococcus aureus [4]): 9 µM
MIC (Staphylococcus aureus [5]): 2.3 µM
HC50 at 40 min [11]: 2 mM
MBC (Escherichia coli [12]): 2.2 µM
MIC (Escherichia coli [13]): 2.2 µM
MBC (Staphylococcus aureus [14]): 18.1 µM
MIC (Staphylococcus aureus [15]): 36.2 µM
viability at 24 h, 100 µM [16]: 75%
viability at 24 h, 100 µM [17]: 75%
Activity (Escherichia coli [18]): Active
Activity (Staphylococcus aureus [19]): Active
Activity (Escherichia coli [20]): Active; Emerged As Swiftest Molecule
Activity (Escherichia coli [21]): Active
Activity (Staphylococcus aureus [22]): Active
Activity (Escherichia coli [23]): Active
Activity (Staphylococcus aureus [24]): Active
Activity (Escherichia coli [25]): Active
Activity (Staphylococcus aureus [26]): Active
Activity [27]: Non-toxic
Activity [28]: Non-toxic
Activity [29]: Non-toxic
Activity [30]: Non-toxic
Survival [31]: 80%
Survival [32]: 40%
Activity (Escherichia coli [33]): 3400 CFU/ml
Activity (Escherichia coli [34]): 9100 CFU/ml
Activity (Escherichia coli [35]): 7800 CFU/ml
Activity (Escherichia coli [36]): 2.9 10^4CFU/ml
Activity (Escherichia coli [37]): 2656 CFU/ml
MIC [38]: > 10 µM
